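Values below derive from 48-hour exposures of cells grown in 96-well plates, with endpoints linearly interpolated between the two concentrations bracketing the appropriate inhibition level. GI50 = concentration required for 50% inhibition of growth. TGI: total growth inhibition.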
Key:
Assay in all cases: DTP human tumour cell line panel, 48 h
HCT-116 colon = test system: HCT-116 colon
SNB-19 CNS = test system: SNB-19 CNS
OVCAR-8 ovarian = test system: OVCAR-8 ovarian
UACC-257 melanoma = test system: UACC-257 melanoma
NCI-H226 lung = test system: NCI-H226 lung
UACC-62 melanoma = test system: UACC-62 melanoma
SN12C renal = test system: SN12C renal
SNB-75 CNS = test system: SNB-75 CNS
MCF7 breast = test system: MCF7 breast
UO-31 renal = test system: UO-31 renal
NCI-H522 lung = test system: NCI-H522 lung
MOLT-4 leukemia = test system: MOLT-4 leukemia
SK-MEL-28 melanoma = test system: SK-MEL-28 melanoma

CNC(=O)C(C)NC(=O)C(Cc1ccccc1)NC(=O)OC(C)(C)C (stereo not given)
TGI (HCT-116 colon): > 100 µM
TGI (SNB-19 CNS): > 100 µM
TGI (OVCAR-8 ovarian): > 100 µM
TGI (UACC-257 melanoma): > 100 µM
TGI (NCI-H226 lung): > 100 µM
TGI (UACC-62 melanoma): > 100 µM
TGI (SN12C renal): > 100 µM
TGI (SNB-75 CNS): > 100 µM
TGI (MCF7 breast): > 100 µM
TGI (UO-31 renal): > 100 µM
TGI (NCI-H522 lung): > 100 µM
TGI (MOLT-4 leukemia): > 100 µM
TGI (SK-MEL-28 melanoma): > 100 µM

CC1=C/C(=N\N(C)C)C(C(O)(C(F)(F)F)C(F)(F)F)C(C)(C)C1 (stereo not given)
TGI (HCT-116 colon): > 100 µM
TGI (SNB-19 CNS): > 100 µM
TGI (OVCAR-8 ovarian): > 100 µM
TGI (UACC-257 melanoma): > 100 µM
TGI (NCI-H226 lung): > 100 µM
TGI (UACC-62 melanoma): > 100 µM
TGI (SN12C renal): > 100 µM
TGI (SNB-75 CNS): > 100 µM
TGI (MCF7 breast): > 100 µM
TGI (UO-31 renal): > 100 µM
TGI (NCI-H522 lung): > 100 µM
TGI (MOLT-4 leukemia): > 100 µM
TGI (SK-MEL-28 melanoma): > 100 µM

C/C(=C\c1csc(C)n1)[C@@H]1C[C@@H]2O[C@]2(C)CCC[C@H](C)[C@H](O)[C@@H](C)C(=O)C(C)(C)[C@@H](O)CC(=O)O1 (tested in a mixture with another compound)
TGI (HCT-116 colon): > 0.183 µM
GI50 (SNB-19 CNS): 0.025 µM
TGI (SNB-19 CNS): > 1 µM
TGI (OVCAR-8 ovarian): > 0.33 µM
TGI (UACC-257 melanoma): > 1 µM
TGI (NCI-H226 lung): > 1 µM
TGI (UACC-62 melanoma): > 1 µM
TGI (SN12C renal): > 1 µM
GI50 (SNB-75 CNS): 0.00551 µM
TGI (MCF7 breast): > 1 µM
TGI (UO-31 renal): > 1 µM
TGI (NCI-H522 lung): 0.00766 µM
TGI (MOLT-4 leukemia): > 0.307 µM
TGI (SK-MEL-28 melanoma): > 1 µM

O=C(n1[nH]c(=O)n(-c2ccc([N+](=O)[O-])cc2)c1=O)C(Cl)(Cl)Cl
TGI (HCT-116 colon): > 75 µM
TGI (SNB-19 CNS): > 75 µM
TGI (OVCAR-8 ovarian): > 75 µM
TGI (UACC-257 melanoma): > 75 µM
TGI (NCI-H226 lung): > 75 µM
TGI (UACC-62 melanoma): > 75 µM
TGI (SN12C renal): > 75 µM
TGI (SNB-75 CNS): > 75 µM
TGI (MCF7 breast): > 75 µM
TGI (UO-31 renal): > 75 µM
TGI (NCI-H522 lung): > 75 µM
TGI (MOLT-4 leukemia): > 75 µM
TGI (SK-MEL-28 melanoma): > 75 µM

Cc1cc(Cl)ccc1NC(=O)/C(CC(=O)CC(c1ccccc1)c1c(O)c2ccccc2oc1=O)=N\O (stereo not given)
TGI (HCT-116 colon): > 100 µM
TGI (SNB-19 CNS): > 100 µM
TGI (OVCAR-8 ovarian): > 100 µM
TGI (UACC-257 melanoma): > 100 µM
TGI (NCI-H226 lung): > 100 µM
TGI (UACC-62 melanoma): > 100 µM
TGI (SN12C renal): > 100 µM
TGI (SNB-75 CNS): > 100 µM
TGI (MCF7 breast): > 100 µM
TGI (UO-31 renal): > 100 µM
TGI (NCI-H522 lung): > 100 µM
TGI (MOLT-4 leukemia): > 100 µM
TGI (SK-MEL-28 melanoma): > 100 µM

COc1ccc(-c2cc(=O)c3c(O)c(OC)c(O)cc3o2)cc1O
TGI (HCT-116 colon): 32.4 µM
TGI (SNB-19 CNS): > 100 µM
TGI (OVCAR-8 ovarian): > 100 µM
TGI (UACC-257 melanoma): > 100 µM
TGI (NCI-H226 lung): > 90.8 µM
TGI (UACC-62 melanoma): 31.4 µM
TGI (SN12C renal): > 100 µM
TGI (SNB-75 CNS): 60 µM
TGI (MCF7 breast): 40.9 µM
TGI (UO-31 renal): > 100 µM
TGI (NCI-H522 lung): 9.53 µM
TGI (MOLT-4 leukemia): 20.7 µM
TGI (SK-MEL-28 melanoma): > 100 µM

Cc1nn(-c2ccccc2)c2nc3c(c(C)nn3-c3ccccc3)c(-c3ccccc3Br)c12
TGI (HCT-116 colon): > 100 µM
TGI (SNB-19 CNS): > 100 µM
TGI (OVCAR-8 ovarian): > 100 µM
TGI (UACC-257 melanoma): > 100 µM
TGI (NCI-H226 lung): > 100 µM
TGI (UACC-62 melanoma): > 100 µM
TGI (SN12C renal): > 100 µM
TGI (SNB-75 CNS): > 100 µM
TGI (MCF7 breast): > 100 µM
TGI (UO-31 renal): > 100 µM
TGI (NCI-H522 lung): > 100 µM
TGI (MOLT-4 leukemia): > 100 µM
TGI (SK-MEL-28 melanoma): > 100 µM

CC1=C(C#N)C(=O)N(/N=C/c2ccc(Cl)cc2)C(=O)/C1=c1\o/c(=C2/C(=O)N(/N=C/c3ccc(Cl)cc3)C(=O)C(C#N)=C2C)c2nccnc12
TGI (HCT-116 colon): > 100 µM
TGI (SNB-19 CNS): > 100 µM
TGI (OVCAR-8 ovarian): > 100 µM
TGI (UACC-257 melanoma): > 100 µM
TGI (NCI-H226 lung): > 100 µM
TGI (UACC-62 melanoma): > 100 µM
TGI (SN12C renal): > 100 µM
TGI (SNB-75 CNS): 85.3 µM
TGI (MCF7 breast): > 100 µM
TGI (UO-31 renal): > 100 µM
TGI (NCI-H522 lung): > 100 µM
TGI (MOLT-4 leukemia): > 100 µM
TGI (SK-MEL-28 melanoma): > 100 µM

Source: PubChem BioAssay (NCI)
